Consider ten molecules from ChEMBL document CHEMBL1150624, “Discovery of natural products from Curcuma longa that protect cells from beta-amyloid insult: a drug discovery effort against Alzheimer's disease” (2002).

Experiment [1] has as its system PC-12. Description: Protection against beta-amyloid (1 to 42) insult in rat PC12 cells assessed as viable cells after 24 hrs by MTT assay. The class given is functional. Particulars: PC-12, 24 h, read-out: ED50 (the source's name).
In experiment [2] the test system is PC-12. The experiment in a line: Protection against beta-amyloid (25 to 35) insult in rat PC12 cells assessed as viable cells after 24 hrs by MTT assay. The format is functional. To be noted: PC-12, 24 h, read-out: ED50 (the source's name). In general terms: Tetrazolium assays rely on reduction of a dye to a coloured formazan, in cell work by metabolically active cells.

≈ marks a conversion by molar mass, not a printed value. Where only a bound is given, the exact number is not on record here.

As to `COc1cc(/C=C/C(=O)/C=C/c2ccc(O)c(OC)c2)ccc1O`, the EC50 in the experiment with PC-12 [1] and in the experiment with PC-12 [2] was > 50 µg/mL in each case.
With `O=C(/C=C/C=C/c1ccc(O)cc1)/C=C/c1ccc(O)cc1`, the EC50 with PC-12 [1] and in the experiment on PC-12 [2] was > 50 µg/mL throughout.
Regarding `COc1cc(/C=C/C=C/C(=O)/C=C/c2ccc(O)c(OC)c2)ccc1O`, the EC50 in the experiment with PC-12 [1] and in the experiment with PC-12 [2] was > 50 µg/mL each time.
Turning to `COc1cc(/C=C/C(=O)CC(=O)CC(O)c2ccc(O)c(OC)c2)ccc1O` (stereo not given), the EC50 with PC-12 [1] is 44.3 µg/mL (≈ 115 µM); in the experiment on PC-12 [2], 30.7 µg/mL (≈ 79.5 µM).
For `O=C(/C=C/c1ccc(O)cc1)CC(=O)CCc1ccc(O)cc1`, the figures for the EC50 with PC-12 [1] and in the experiment with PC-12 [2] were 1 µg/mL (≈ 3.22 µM) and 0.5 µg/mL (≈ 1.61 µM), respectively.
`O=C(/C=C/c1ccc(O)cc1)CC(=O)/C=C/c1ccc(O)cc1` [BISDEMETHOXYCURCUMIN]: the EC50 stood at 3.5 µg/mL (≈ 11.4 µM) with PC-12 [1] and 2 µg/mL (≈ 6.49 µM) with PC-12 [2].
As for `COc1cc(/C=C/C(=O)COC(=O)/C=C/c2ccc(O)c(OC)c2)ccc1O` [CALEBI A], the EC50 with PC-12 [1] was found to be 2 µg/mL (≈ 5.2 µM); in the experiment with PC-12 [2], 1 µg/mL (≈ 2.6 µM).
On the same counts, the results for `Nc1c(/N=N/c2ccc(-c3ccc(/N=N/c4cc(S(=O)(=O)[O-])c5ccccc5c4N)cc3)cc2)cc(S(=O)(=O)[O-])c2ccccc12.[Na+].[Na+]` [CONGO RED] are 39.2 µg/mL and 37.5 µg/mL.
For `COc1cc(/C=C/C(=O)CC(=O)/C=C/c2ccc(O)c(OC)c2)ccc1O` [CURCUMIN], the EC50 in the experiment with PC-12 [1] came out at 10 µg/mL (≈ 27.1 µM); in the experiment with PC-12 [2], 7 µg/mL (≈ 19 µM).
Turning to `COc1cc(/C=C/C(O)=C/C(=O)/C=C/c2ccc(O)cc2)ccc1O` [DEMETHOXYCURCUMIN], the EC50 with PC-12 [1] worked out at 5 µg/mL (≈ 14.8 µM); in the experiment with PC-12 [2], 4 µg/mL (≈ 11.8 µM).
